Assay results reported in patent US9409952B2, “Peptide-compound cyclization method” (Chugai Seiyaku Kabushiki Kaisha, priority 2011, dated 2016).
Starred links: 1 amine or outer side, 2 acyl side, 3 side chain; linkers in the order of their positions; H or OH if unused. Positions of bridges follow the written chain, without caps; N, C: chain ends. Non-standard residues stand in square brackets, D forms with d. Residues, ends and D or L forms follow the SMILES beside them. ξ: configuration not given here. *: point of attachment. NMeF = CN[C@@H](Cc1ccccc1)C(=O)O; NMeβAla = CN(CCC(=O)[*:2])[*:1]; NMeL = CN[C@@H](CC(C)C)C(=O)O; ξNMeF = CNC(Cc1ccccc1)C(=O)O; NMeV = CN[C@H](C(=O)O)C(C)C; NMeA = CN[C@@H](C)C(=O)O; Piperidide = C1CCN(*)CC1; Sar = CNCC(=O)O

Assays:
[1] = Metabolic stability in human hepatic microsome; type: in vitro ADME; conditions: human, microsomes, pH 7.4, CL NADPH(+)
[2] = PAMPA (parallel artificial membrane permeability assay); type: in vitro ADME; conditions: PAMPA, pH 6.5
Procedure, shortened: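 Artificial membrane was 10% (w/v) egg lecithin plus 0.5% (w/v) cholesterol in dodecane on a PVDF filter. A 10 mM DMSO stock was added at 0.5% (v/v) to donor buffer (50 mM MOPSO, pH 6.5, 5.0% glycocholic acid). After 18 h at 37 °C, LC/MS or LC/UV gave donor and acceptor levels for Pe.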

Row | SMILES | microsomal CLint at 1 uM [1] | Papp at 18 hours, 50 µM [2]
1 | CC[C@H](C)[C@@H]1NC(=O)[C@H](C)N(C)C(=O)[C@H](CC(C)C)N(C)C(=O)[C@H](Cc2ccccc2)NC(=O)[C@H]([C@@H](C)O)NC(=O)[C@H](C(C)C)N(C)C(=O)[C@H](C)N(C)C(=O)CN(C)C(=O)[C@@H](C(C)C)NC(=O)C[C@@H](C(=O)N(C)C(Cc2ccccc2)C(=O)N(C)[C@@H](Cc2ccccc2)C(=O)N[C@@H](C)C(=O)N2CCCCC2)NC1=O (stereo partly drawn) [DP-293] ([dV][Sar][NMeA][NMeV]TF[NMeL][NMeA]ID[ξNMeF][NMeF]A-Piperidide; lactam N-10) | 29 µL/min/mg | 45 ×10⁻⁶ cm/s
2 | CC[C@H](C)[C@@H]1NC(=O)[C@@H](C(C)C)NC(=O)C[C@@H](C(=O)N(C)[C@@H](Cc2ccccc2)C(=O)N[C@@H](C)C(=O)N2CCCCC2)NC(=O)[C@H](Cc2ccccc2)N(C)C(=O)[C@H](C)NC(=O)[C@H](CC(C)C)N(C)C(=O)[C@H](C)N(C)C(=O)[C@H]([C@@H](C)O)NC(=O)[C@H](C)N(C)C(=O)[C@H](C(C)C)N(C)C1=O [DP-294] ([dV]I[NMeV][NMeA]T[NMeA][NMeL]A[NMeF]D[NMeF]A-Piperidide; lactam N-10) | 35 µL/min/mg | 17 ×10⁻⁶ cm/s
3 | CC(C)C[C@H]1C(=O)N[C@H](C(=O)N(C)[C@@H](Cc2ccccc2)C(=O)N[C@@H](C)C(=O)N2CCCCC2)CC(=O)N(C)[C@@H](C)C(=O)N[C@@H](Cc2ccccc2)C(=O)N(C)[C@@H](C(C)C)C(=O)N(C)[C@@H](C)C(=O)N[C@@H]([C@@H](C)O)C(=O)N(C)[C@@H](C)C(=O)N(C)[C@@H](CC(C)C)C(=O)N[C@@H](C)C(=O)N1C [DP-296] ([NMeA]F[NMeV][NMeA]T[NMeA][NMeL]A[NMeL]D[NMeF]A-Piperidide; lactam N-10) | 64 µL/min/mg | 15 ×10⁻⁶ cm/s
4 | CC[C@H](C)[C@@H]1NC(=O)[C@H](C(C)C)N(C)C(=O)[C@H](CC(C)C)N(C)C(=O)[C@H](C)N(C)C(=O)[C@H]([C@@H](C)O)NC(=O)[C@H](Cc2ccccc2)N(C)C(=O)CCN(C)C(=O)C[C@@H](C(=O)N(C)[C@@H](Cc2ccccc2)C(=O)N(C)[C@@H](Cc2ccccc2)C(=O)N[C@@H](C)C(=O)N2CCCCC2)NC(=O)[C@H](C)N(C)C(=O)[C@H](CC(C)C)N(C)C1=O [DP-297] ([NMeβAla][NMeF]T[NMeA][NMeL][NMeV]I[NMeL][NMeA]D[NMeF][NMeF]A-Piperidide; lactam N-10) | 78 µL/min/mg | 19 ×10⁻⁶ cm/s
5 | CC(C)C[C@H]1C(=O)N[C@@H](Cc2ccccc2)C(=O)N(C)[C@@H](C(C)C)C(=O)N[C@@H]([C@@H](C)O)C(=O)N[C@H](C(=O)N(C)[C@@H](Cc2ccccc2)C(=O)N(C)[C@@H](Cc2ccccc2)C(=O)N[C@@H](C)C(=O)N2CCCCC2)CC(=O)N(C)CCC(=O)N[C@@H](C(C)C)C(=O)N(C)[C@@H](CC(C)C)C(=O)N(C)[C@@H](Cc2ccccc2)C(=O)NCC(=O)N1C [DP-298] ([NMeβAla]V[NMeL][NMeF]G[NMeL]F[NMeV]TD[NMeF][NMeF]A-Piperidide; lactam N-10) | 39 µL/min/mg | 7 ×10⁻⁶ cm/s
6 | CC[C@H](C)[C@@H]1NC(=O)[C@H](Cc2ccccc2)N(C)C(=O)[C@H](CC(C)C)N(C)C(=O)[C@H](Cc2ccccc2)N(C)C(=O)[C@H]([C@@H](C)O)NC(=O)CCN(C)C(=O)C[C@@H](C(=O)N(C)[C@@H](Cc2ccccc2)C(=O)N[C@@H](C)C(=O)N2CCCCC2)NC(=O)[C@H](CC(C)C)N(C)C(=O)[C@H](C)N(C)C(=O)[C@H](CC(C)C)N(C)C1=O [DP-299] ([NMeβAla]T[NMeF][NMeL][NMeF]I[NMeL][NMeA][NMeL]D[NMeF]A-Piperidide; lactam N-10) | 56 µL/min/mg | 5.3 ×10⁻⁶ cm/s
